One test concerns the target T1, human JAK1 (Homo sapiens, UniProt P23458).
T1 construct: The kinase domain of human JAK1 was amplified; GST (N); made in house; host or cells: Sf9 insect cells (baculovirus)
The test is described as follows: Alphascreen tyrosine kinase enzyme assay, JAK1 kinase domain. Type of test: biochemical. The note with it: read-out: JAK1 IC50_nM. A general note: In Alpha technology, singlet oxygen from a donor bead excites a nearby acceptor bead.

For a further test, the system named is CTLL2. The test is described as follows: Cellular screening, CTLL2 cells, Alamar Blue. Type of test: cell-based. The note with it: Mus musculus, CTLL-2, read-out: CTLL2 IC50_nM. The gist of the method: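 Viability is read with Alamar Blue at 544 nm, the dye added for the final 4-6 hours. Compounds were incubated for 40 hr with CTLL2 cells taken from late-log-phase culture, at 37° C in 5% CO2.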

The target in test [1] is T2, BaF3 TELJAK2 cells (BafT_J2) (Homo sapiens, UniProt O60674).
T2 construct: fused on or other part: TEL (ETV6) N-terminal part, coding nucleotides 1-487, serves as the oligomerising partner; It is fused through a Sal I site to the JAK2 kinase domain and expressed from pTRE2 in BaF3 cells bearing pTET-off; P41212 (Transcription factor ETV6)
T2 sequence (O60674 whole entry, change not shown, the tested form may be a part): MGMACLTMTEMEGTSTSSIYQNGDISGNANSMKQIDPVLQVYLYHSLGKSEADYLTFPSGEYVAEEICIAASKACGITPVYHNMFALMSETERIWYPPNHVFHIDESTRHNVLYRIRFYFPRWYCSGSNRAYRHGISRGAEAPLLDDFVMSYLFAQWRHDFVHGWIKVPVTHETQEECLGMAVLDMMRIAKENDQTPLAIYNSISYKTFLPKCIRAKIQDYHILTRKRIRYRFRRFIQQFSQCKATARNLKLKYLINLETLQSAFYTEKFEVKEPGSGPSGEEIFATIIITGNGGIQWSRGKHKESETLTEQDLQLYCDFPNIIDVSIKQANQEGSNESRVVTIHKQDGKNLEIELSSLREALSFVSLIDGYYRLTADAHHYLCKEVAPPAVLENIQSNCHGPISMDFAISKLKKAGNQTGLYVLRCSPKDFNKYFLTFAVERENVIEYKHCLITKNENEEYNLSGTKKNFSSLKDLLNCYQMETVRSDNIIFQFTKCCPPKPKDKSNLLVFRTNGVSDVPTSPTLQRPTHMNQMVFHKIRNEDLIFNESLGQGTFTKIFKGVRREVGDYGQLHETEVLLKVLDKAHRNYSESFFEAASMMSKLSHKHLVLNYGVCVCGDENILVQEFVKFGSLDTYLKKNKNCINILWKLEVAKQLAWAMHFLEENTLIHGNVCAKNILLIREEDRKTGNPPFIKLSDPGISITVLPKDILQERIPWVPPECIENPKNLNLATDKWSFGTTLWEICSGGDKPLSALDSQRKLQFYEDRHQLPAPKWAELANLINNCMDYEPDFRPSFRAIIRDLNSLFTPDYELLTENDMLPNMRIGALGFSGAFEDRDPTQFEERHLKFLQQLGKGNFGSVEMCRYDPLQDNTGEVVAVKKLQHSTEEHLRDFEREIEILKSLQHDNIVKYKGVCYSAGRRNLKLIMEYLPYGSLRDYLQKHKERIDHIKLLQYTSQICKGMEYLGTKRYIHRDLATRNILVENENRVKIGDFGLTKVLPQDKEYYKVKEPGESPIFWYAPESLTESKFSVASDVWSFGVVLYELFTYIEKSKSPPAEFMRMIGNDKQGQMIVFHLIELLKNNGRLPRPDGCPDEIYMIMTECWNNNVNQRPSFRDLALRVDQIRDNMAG
The test is described as follows: Cellular screening, BaF3 TEL:JAK2 cells, Alamar Blue. Type of test: cell-based. The settings on record: 40 hr, read-out: BafT_J2 IC50_nM. A digest of the protocol: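 Tet-off BaF3 cells carrying a TEL (nt 1-487)–JAK2 kinase-domain fusion, grown factor-independently in DMEM with 10% Tet-approved FBS without WEHI 3B medium. Compounds were diluted to 20 μM in screening plates, and cells (50,000–200,000 cell/mL at 1.1×) were incubated 40 hr at 37 °C, 5% CO2. Alamar Blue was then added for 4-6 hours; read at 544 nm.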

The target in a further test is T3, human JAK2 (Homo sapiens, UniProt O60674).
T3 construct: The kinase domain of human JAK2 was amplified; GST (N); made in house; host or cells: Sf9 insect cells (baculovirus)
T3 sequence (O60674 849-1124 limits assumed): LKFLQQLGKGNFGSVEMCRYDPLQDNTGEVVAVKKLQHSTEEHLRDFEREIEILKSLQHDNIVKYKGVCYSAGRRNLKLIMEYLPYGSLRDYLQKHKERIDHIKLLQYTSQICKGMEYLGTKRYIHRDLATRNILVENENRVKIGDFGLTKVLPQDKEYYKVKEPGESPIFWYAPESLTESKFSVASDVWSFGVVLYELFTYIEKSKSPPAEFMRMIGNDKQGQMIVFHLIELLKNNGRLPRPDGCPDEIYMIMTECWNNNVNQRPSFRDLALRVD
Kind of test: Alphascreen tyrosine kinase enzyme assay, JAK2 kinase domain. Type of test: biochemical. The note with it: read-out: JAK2 IC50_nM. The gist of the method: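 JAK2 kinase domain expressed in baculovirus/Sf9 and glutathione-affinity purified. Compounds (final […]) pre-incubated 20 min with enzyme in 10 mM HEPES pH 7.5, MgCl2, NaCl, vanadate, 0.1% Tween 20.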

A further test has as its system BaF3 wild-type cells. Kind of test: Cellular screening, BaF3 wild-type cells, Alamar Blue. Type of test: cell-based. The note with it: Mus musculus, 40 hr, read-out: BAF3wt IC50_nM. A digest of the protocol: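 Compounds, screened from dilution plates at 20 μM, were added as 10× final stocks to cells grown in DMEM/10% FCS/10% WEHI 3B conditioned medium. Cells were seeded at 1.1× final (50,000–200,000 cells/mL) and incubated 40 hr at 37° C, 5% CO2. Viability was read at 544 nm after a further 4–6 hours with Alamar Blue.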
A general note: Resazurin is reduced to fluorescent resorufin, in cell work by metabolically active cells.

This note sets out measurements from patent US8846704B2, “Thiopyrimidine-based compounds and uses thereof” (YM Biosciences Austraila Pty Ltd, priority 2007, dated 2014).

T1 sequence (P23458 875-1153 limits assumed): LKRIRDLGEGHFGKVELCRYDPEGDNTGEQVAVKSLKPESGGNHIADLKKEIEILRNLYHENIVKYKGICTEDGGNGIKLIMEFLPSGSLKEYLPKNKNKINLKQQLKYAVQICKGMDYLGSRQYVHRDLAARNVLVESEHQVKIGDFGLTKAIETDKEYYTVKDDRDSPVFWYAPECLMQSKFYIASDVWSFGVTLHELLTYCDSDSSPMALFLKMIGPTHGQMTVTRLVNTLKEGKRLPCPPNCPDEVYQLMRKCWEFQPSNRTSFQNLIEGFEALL

As to `C=CC(=O)Nc1ccc(Sc2nc(Nc3ccc(N4CCOCC4)cc3)ncc2Br)cc1` [Compound 306, N-(4-(5-bromo-2-(4-morpholinophenylao)pyrimidin-4-ylthio)phenyl)acrylamide], the IC50 on human JAK1 was greater than 1000 nM; with CTLL2, less than 1000 nM; on human JAK2 it was greater than 1000 nM; in the test with BaF3 wild-type cells it was greater than 20000 nM. Moreover, in test [1], the GI50 is greater than 20000 nM.

As to `O=C(/C=C/Cl)Nc1cccc(Sc2ccnc(Nc3ccc(N4CCOCC4)cc3)n2)c1` [Compound 340, (E)-3-chloro-N-(3-(2-(4-morpholinophenylao)pyrimidin-4-ylthio)phenyl)acrylamide], the IC50 is greater than 1000 nM at human JAK1, less than 5000 nM in the test with CTLL2, greater than 1000 nM at human JAK2 and less than 5000 nM with BaF3 wild-type cells. Besides, in test [1], the GI50 was less than 20000 nM.

Take `O=C(/C=C\Cl)Nc1ccc(Sc2ccnc(Nc3ccc(N4CCOCC4)cc3)n2)cc1` [Compound 346, (Z)-3-chloro-N-(4-(2-(4-morpholinophenylao)pyrimidin-4-ylthio)phenyl)acrylamide]: the IC50 on human JAK1 is greater than 1000 nM; in the test on CTLL2 it was less than 20000 nM; at human JAK2, greater than 1000 nM; with BaF3 wild-type cells, less than 1000 nM. Also, the GI50 in test [1] was less than 1000 nM.

`C=CC(=O)Nc1ccc(Sc2ccnc(Nc3ccc(S(N)(=O)=O)c(OC)c3)n2)cc1` [Compound 374, N-(4-(2-(3-methoxy-4-sulfamoylphenylao)pyrimidin-4-ylthio)phenyl)acrylamide]: the IC50 at human JAK1 was greater than 1000 nM; in the test with CTLL2, less than 20000 nM; at human JAK2 it was greater than 1000 nM; in the test with BaF3 wild-type cells it was less than 5000 nM. Also, the GI50 in test [1] was less than 5000 nM.

For `Cc1cnc(Nc2ccc(N3CCOCC3)cc2)nc1Sc1ccc(NC(=O)/C=C\C(=O)O)cc1` [Compound 380, (Z)-4-(4-(5-methyl-2-(4-morpholinophenylao)pyrimidin-4-ylthio)phenylao)-4-oxobut-2-enoic acid], the IC50 was greater than 1000 nM on human JAK1, greater than 20000 nM with CTLL2, greater than 1000 nM at human JAK2 and greater than 20000 nM in the test on BaF3 wild-type cells. The GI50 in test [1] was greater than 20000 nM.

Turning to `Cc1cnc(Nc2ccc(N3CCOCC3)cc2)nc1Sc1ccc(N2C(=O)C=C(Br)C2=O)cc1` [Compound 382, 3-bromo-1-(4-(5-methyl-2-(4-morpholinophenylao)pyrimidin-4-ylthio)phenyl)-1H-pyrrole-2,5-dione], the IC50 is greater than 1000 nM at human JAK1, less than 20000 nM in the test with CTLL2, greater than 1000 nM on human JAK2 and less than 20000 nM in the test with BaF3 wild-type cells. In test [1], the GI50 is less than 20000 nM.

On to `CCOC(=O)/C=C/C(=O)Nc1ccc(Sc2nc(Nc3ccc(N4CCOCC4)cc3)ncc2C)cc1` [Compound 385, (E)-ethyl 4-(4-(5-methyl-2-(4-morpholinophenylao)pyrimidin-4-ylthio)phenylao)-4-oxobut-2-enoate], for which the IC50 is greater than 1000 nM at human JAK1, less than 5000 nM in the test with CTLL2, greater than 1000 nM at human JAK2 and greater than 20000 nM in the test on BaF3 wild-type cells. Also, the GI50 in test [1] was greater than 20000 nM.

Consider `CNC(=O)/C=C\C(=O)Nc1ccc(Sc2nc(Nc3ccc(N4CCOCC4)cc3)ncc2C)cc1` [Compound 389, N1-methyl-N4-(4-(5-methyl-2-(4-morpholinophenylao)pyrimidin-4-ylthio)phenyl)maleamide], for which the IC50 was greater than 1000 nM at human JAK1, less than 1000 nM in the test with CTLL2, greater than 1000 nM at human JAK2 and less than 20000 nM in the test on BaF3 wild-type cells. Moreover, in test [1], the GI50 is less than 20000 nM.
